# Results from patent US20250387379A1, “ARYL-ANILINE AND HETEROARYL-ANILINE COMPOUNDS FOR TREATMENT OF SKIN CANCERS” (NFLECTION THERAPEUTICS, INC., priority 2018, published 2025).
# How the values were obtained:
# MAP2K1 (MEK1) = MAP2K1 (MEK1) (Homo sapiens (Human), UniProt Q02750); assay: MEK Inhibition Assay-2 (Z'-LYTE biochemical assay; Example 5); settings: Table 6, Z'-LYTE procedure of Example 5; read-out: IC50 against MEK1
# Method: MEK1 inhibitory activity of compounds were tested using the following procedure (protocol available at thermofisher.com/content/dam/LifeTech/migration/files/drug-discovery/pdfs.par.60256.file.dat/20130430%20ssbk%20customer%20protocol%20and%20assay%20conditions.pdf). The Z′-LYTE biochemical assay (ThermoFisher) employs a fluorescence-based, coupled-enzyme format and is based on the differential sensitivity of phosphorylated and non-phosphorylated peptides to proteolytic cleavage.
# Test compounds in 100% DMSO were screened in 1% DMSO (final) in the well. For 10 point titrations, 3-fold serial dilutions are conducted from the starting concentration of 30 μM.
# After the 1 hour incubation, 5 μL of a 1:1024 dilution of Development Reagent A (available from Invitrogen, catalog no. PV3295) was added.
# ATP solutions were diluted to a 4× working concentration in Kinase Buffer (50 mM HEPES pH 7.5, 0.01% BRIJ-35, 10 mM MgCl2, 1 mM EGTA). ATP Km apparent was previously determined using a Z′-LYTE assay. The Development Reagent was diluted in Development Buffer (available from Invitrogen, catalog no. P3127).
# Assay Protocol: 2.5 μL of 4× test compound or 100 nL of 100× Test Compound plus 2.4 μL Kinase Buffer, 5 μL of the 2× Peptide/Kinase Mixture, 2.5 μL of 4×ATP Solution were added to the plates and placed on a shake plate for 30-seconds. The kinase reaction was allowed to proceed for 60-minute at room temperature, before 5 μL of Development Reagent Solution was added, and the mixture agitated for 30-seconds on a shake plate. The mixture was incubated for 60-minute at room temperature. Fluorescence was measured using a plate reader and the data were analyzed.
# This control yielded 100% cleaved peptide in the Development Reaction. The 100% Phosphorylation Control, which consisted of a synthetically phosphorylated peptide of the same sequence as the peptide substrate, was designed to allow for the calculation of percent phosphorylation. This control yielded a very low percentage of cleaved peptide in the Development Reaction. The 0% Phosphorylation and 100% Phosphorylation Controls allow for the calculation of the percent phosphorylation achieved in a specific reaction well.
# The minimum emission ratio in a screen was established by the 0% Inhibition Control, which contained active kinase. This control was designed to produce a 10-50% phosphorylated peptide in the Kinase Reaction. Cascade assays may produce up to 70% phosphorylated peptide.
# A known inhibitor control standard curve, 10 point titration, was run for each individual kinase on the same plate as the kinase to ensure the kinase was inhibited within an expected IC50 range previously determined.
# The following controls are prepared for each concentration of Test Compound assayed. […] The expected value for a non-interfering compound should be 100%. Any value outside of 90% to 110% was flagged. […] The expected value for a non-fluorescence compound should be 0%. Any value >20% was flagged.
# The data in Table A was calculated. XLfit from IDBS was used. The dose response curve was curve fit to model number 205 (sigmoidal dose-response model).
# [1] = topical application; cited from earlier work
# [2] = test system: cutaneous squamous-cell carcinoma tumors
# skin tumors = settings: oral; trametinib 2 mg/kg/day, cobimetinib 10 mg/kg/day; chronic, low-dose, solar simulated UV light; cited from earlier work
# MAP2K1 (MEK1), sequence (Q02750 whole entry): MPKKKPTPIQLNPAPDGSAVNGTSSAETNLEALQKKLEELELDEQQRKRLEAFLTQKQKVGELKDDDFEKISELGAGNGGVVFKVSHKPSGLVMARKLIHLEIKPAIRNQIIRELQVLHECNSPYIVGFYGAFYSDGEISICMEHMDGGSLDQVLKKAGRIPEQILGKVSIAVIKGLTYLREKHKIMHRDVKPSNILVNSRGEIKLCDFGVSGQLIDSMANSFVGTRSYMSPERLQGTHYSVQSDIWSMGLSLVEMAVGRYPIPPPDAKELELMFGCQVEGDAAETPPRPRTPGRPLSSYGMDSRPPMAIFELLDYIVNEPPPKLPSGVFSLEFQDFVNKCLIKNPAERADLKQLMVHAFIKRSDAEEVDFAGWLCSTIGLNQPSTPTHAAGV
SMILES,IC50 (MAP2K1 (MEK1)) [nM],also measured
O=c1c2c(Nc3ccc(I)cc3F)cncc2ccn1C[C@@H](O)CO [Compound 5.001],≤ 150,–
O=C1CCCc2c1sc(Nc1ccc(I)cc1F)c2C(=O)NC[C@H](O)CO [Compound 4.034],≤ 150,–
O=c1[nH]cc(F)c(=O)[nH]1 [5-fluorouracil],–,patients who experienced at least 1 adverse event ranging from mild to severe [1]: ≤ 97%
COC(=O)Cn1ccc2cncc(Nc3ccc(I)cc3F)c2c1=O [Compound 5.005],> 1500,–
N#Cc1ccc(C(=O)NO)c(Nc2ccc(I)cc2F)c1 [Compound 1.017],≤ 150,–
N#Cc1ccc(C(=O)NOCCO)c(Nc2ccc(I)cc2F)c1F [Compound 1.030],≤ 150,–
COC(=O)CCONC(=O)c1ccc(C#N)cc1Nc1ccc(I)cc1F [Compound 1.022],> 1500,–
Cn1c(Nc2ccc(I)cc2F)c(C(=O)NOCCO)c2cccnc21 [Compound 2.003],–,"body weight loss of treated mice ([2]; topical delivery): none of the mice lost weight; tumor formation versus topical vehicle (placebo) ([2]; topical gel 0.01%, 0.15%, 0.5% by weight, 30 day course of treatment, first 12 mice): mice treated with the topical vehicle (placebo) formed substantially more tumors than those treated with Compound 2.003 at all concentrations; tumor induction (new tumors per mouse) ([2]; topical gel 0.5%, 0.15%, 0.01%, FIG. 5): completely suppress tumor induction; size of existing tumors (tumor volume per mouse) ([2]; topical gel 0.5%, 0.15%, 0.01%, FIG. 6): reduce the size of existing tumors"
O=C1CCCc2c1sc(Nc1ccc(I)cc1F)c2C(=O)NOCCO [Compound 4.029],≤ 150,–
NCCONC(=O)c1c(Nc2ccc(I)cc2F)sc2c1CCCC2=O [Compound 4.033],≤ 150,–
O=c1c2c(Nc3ccc(I)cc3F)cncc2ccn1C[C@H](O)CO [Compound 5.002],≤ 150,–
O=C1CCCc2c1sc(Nc1ccc(I)cc1F)c2C(=O)NOC[C@H](O)CO [Compound 4.030],≤ 150,–
N#Cc1ccc(C(=O)N2CC(O)C2)c(Nc2ccc(I)cc2F)c1 [Compound 1.002],> 1500,–
O=C1CCCc2c1sc(Nc1ccc(I)cc1F)c2C(=O)NOCC1CC1 [Compound 4.032],≤ 150,–
O=C1CCCc2c1sc(Nc1ccc(I)cc1F)c2C(=O)NC[C@@H](O)CO [Compound 4.035],≤ 150,–
"CC(C)Cn1cnc2c(N)nc3ccccc3c21 [imiquimod, Imiquimod]",–,patients who experienced at least 1 adverse event ranging from mild to severe [1]: Up to 100%
N#Cc1ccc(C(=O)NOCC2CC2)c(Nc2ccc(I)cc2F)c1F [Compound 1.031],≤ 150,–
O=C(c1ccc(F)c(F)c1Nc1ccc(I)cc1F)N1CC(O)([C@@H]2CCCCN2)C1 [cobimetinib],–,reduction of skin tumors (skin tumors): effective in reducing skin tumors
CC(=O)Nc1cccc(-n2c(=O)n(C3CC3)c(=O)c3c(Nc4ccc(I)cc4F)n(C)c(=O)c(C)c32)c1 [trametinib],–,reduction of skin tumors (skin tumors): effective in reducing skin tumors
O=C(O)Cn1ccc2cncc(Nc3ccc(I)cc3F)c2c1=O [Compound 5.004],> 1500,–
N#Cc1ccc(C(=O)NOCCO)c(Nc2ccc(I)cc2F)c1 [Compound 1.010],≤ 150,–
